Assay results reported in PMC11189555, “Aryl amino acetamides prevent Plasmodium falciparum ring development via targeting the lipid-transfer protein PfSTART1” (Nature Communications, 2024).
Values joined by “and” are separate entries in the source; they are usually repeats but may differ in a detail not shown here. Identical values can stand only once. Like-named read-outs stand apart in the source and are kept apart here.

Tested on: CR-WT parasites
Experiment: Growth inhibition assay (72 h, LDH activity)
Format: cell-based, Plasmodium falciparum
Conditions: CR-WT; for inhibition at 0.1 µM / inhibition at up to 0.1 µM / EC50: Plasmodium falciparum; for inhibition at 0.1 µM / inhibition at up to 0.1 µM: read-out: NORMALISED (growth inhibition, LDH absorbance); for EC50: read-out: EC50 W-991 (95% confidence interval), Fig 4C, n = 3
Procedure: Parasite growth assays with inhibitory compounds were performed as per[11] and are fully described in the Supplementary Information.
Molecular biology and transfection of P. falciparum: CRISPR method.
The full 5’ homology region of pfstart1 (either WT, N309K or N330K) was amplified from pPfSTART1-HA-2A-Neo-glmS with the same 5’ BglII primer and a new 3’ primer that replaced with PstI with SpeI and introduced a stop codon. The PCR product was then digested with BglII and SpeI and inserted into similarly digested p1.2 parasite vector2. The p1.2 vector had previously been inserted with a homology region amplified from the 3’ end of the pfstart1 gene (3’HB) to form a second homology block for double recombination. The primers used to amplify 3’HB are listed primers listed in […]
60 μg of p1.2-PfSTART1(WT/N309K/N330K) plasmid was linearised with KasI, precipitated in 3 M sodium acetate and ethanol (70% final concentration) overnight at -20°C. The DNA pellet was washed in cold 70% ethanol and resuspended in cytomix 3.
50 μ M of crRNA ( Table S 2) and 50 μM of tracRNA (Integrated DNA Technologies) were allowed to form a duplex (5 min at 95°C), and Cas9 enzyme (Integrated DNA Technologies) was added, and incubated for 20 min at room temperature 4. This crRNA -tracRNA -Cas9 mix was added to each DNA preparation and transfected to 3D7 ring parasites using the Bio -Rad Gene Pulser at 310 V and 950 μF.
Parasites containing the transfected DNA were selected using 2.5 nM WR99210 (Jacobus). Parasites lines were cloned using limiting dilution. Correct integration was tested by PCR (using primer START_5’UTR.F and START_Int.R1 , Table S 2), and sequencing was done using the primers START_3F and START_Int.R2 (Table S 2).
Growth inhibition assays. Synchronised ring-stage parasites (0.3-0.6% parasitemia, 2% haematocrit) were grown for 72 h in a serial-dilution of the compound under […]
and compound 4. Note that M-833 was first purchased from MolPort (MolPort -002-267-916) then made in-house at WEHI: the differences observed in EC50s across experiments are attributed to the different batches of M -833. For some experiments, 0, 0.25 or 2.5 mM of glucosamine (GlcN) was also added. Experiments were set up in technical duplicates or triplicates. Following a freeze -thaw cycle, lactate dehydrogenase (LDH) activity was assessed as an indicator of parasite growt h 5. 30 μL of parasite culture was incubated for 30 min in the dark with 75 μL Malstat mixture (0.1 M Tris pH 9.0, 20 g/L lactic acid, pH 7.5, 0.2% Triton-X100, 0.5 g/L acetylpyridine adenine dinucleotide (APAD, Sigma), 200 μg/mL nitroblue tetrazolium (NBT; Sigma), 1 μg/mL phenozine ethosulfate (PES; Sigma)). Absorbance was then measured at 650 nm, transformed using the formula below, plotted against the logarithm of the concentrations, and a non-linear regression (log(inhibitor) vs. response, variable slope) was calculated using GraphPad Prism to assess the half-inhibitory […]
Growth inhibition % = (1 − average(sample)− average(uRBC)) ∗ 100 […]
The DMSO samples were also used to assess growth of parasite in the presence of 0.25 and 2.5 mM GlcN (normalised by DMSO in 0 mM GlcN). […]

[1] = 0.25 mM GlcN, dilution point 1 of 10, starting concentration 100 nM
[2] = 2.5 mM GlcN, dilution point 1 of 10, starting concentration 100 nM
[3] = 2.5 mM GlcN, dilution point 2 of 10 from starting concentration 100 nM
[4] = 2.5 mM GlcN, dilution point 3 of 10 from starting concentration 100 nM
[5] = 2.5 mM GlcN, dilution point 4 of 10 from starting concentration 100 nM
[6] = 2.5 mM GlcN, dilution point 6 of 10 from starting concentration 100 nM

CC(C)(Nc1ccc(Cl)c(S(=O)(=O)N2CCOCC2)c1)C(=O)Nc1ccc(F)c(Cl)c1 [W-991]
NORMALISED (growth inhibition, LDH absorbance vs DMSO and uRBC) (0 mM GlcN, W991 at 1.23457 nM): 49.5102 and 70.9626 | NORMALISED (growth inhibition, LDH absorbance vs DMSO and uRBC) (0 mM GlcN, W991 at 3.7037 nM): 86.3119 and 94.5107 | NORMALISED (growth inhibition, LDH absorbance vs DMSO and uRBC) (0 mM GlcN, W991 at 11.1111 nM): 91.2364 and 97.6134 | NORMALISED (growth inhibition, LDH absorbance vs DMSO and uRBC) (0 mM GlcN, W991 at 33.3333 nM): 92.4279 and 96.4200 | NORMALISED (growth inhibition, LDH absorbance vs DMSO and uRBC) (0 mM GlcN, W991 at 100 nM): 91.9778 and 98.0111 | NORMALISED (growth inhibition, LDH absorbance) [1]: 97.4106 | NORMALISED (growth inhibition, LDH absorbance) (0.25 mM GlcN, dilution point 2 of 10 from starting concentration 100 nM): 93.8101 | NORMALISED (growth inhibition, LDH absorbance) (0.25 mM GlcN, dilution point 3 of 10 from starting concentration 100 nM): 94.0567 | NORMALISED (growth inhibition, LDH absorbance) (0.25 mM GlcN, dilution point 4 of 10 from starting concentration 100 nM): 92.7990 | NORMALISED (growth inhibition, LDH absorbance) (0.25 mM GlcN, dilution point 5 of 10 from starting concentration 100 nM): 69.6729 and 71.5413 | NORMALISED (growth inhibition, LDH absorbance) (0.25 mM GlcN, dilution point 6 of 10 from starting concentration 100 nM): 30.2387 and 29.5808 | NORMALISED (growth inhibition, LDH absorbance) [2]: 92.5403 | NORMALISED (growth inhibition, LDH absorbance) [3]: 92.2581 | NORMALISED (growth inhibition, LDH absorbance) [4]: 92.0699 | NORMALISED (growth inhibition, LDH absorbance) [5]: 91.3306 | NORMALISED (growth inhibition, LDH absorbance) (2.5 mM GlcN, dilution point 5 of 10 from starting concentration 100 nM): 90.4301 | NORMALISED (growth inhibition, LDH absorbance) [6]: 75.1747 | NORMALISED (growth inhibition, LDH absorbance) (2.5 mM GlcN, dilution point 7 of 10 from starting concentration 100 nM): 66.8125 and 50.5511 | NORMALISED (growth inhibition, LDH absorbance) (2.5 mM GlcN, dilution point 8 of 10 from starting concentration 100 nM): 47.5123 and 39.2070 | NORMALISED (growth inhibition, LDH absorbance) (2.5 mM GlcN, dilution point 9 of 10 from starting concentration 100 nM): 32.6882 and 33.0782 | NORMALISED (growth inhibition, LDH absorbance) (2.5 mM GlcN, dilution point 10 of 10 from starting concentration 100 nM): 35.7796 and 19.6829 | fold sensitised on PfSTART1 knock-down with GlcN (Fig 4C): 7 fold | inhibition at 0.1 µM [1]: 93.4% | inhibition at 0.1 µM [2]: 94.2% | inhibition at up to 0.1 µM [3]: 91.4% | inhibition at up to 0.1 µM [4]: 93% | inhibition at up to 0.1 µM [5]: 91.6% | inhibition at up to 0.1 µM [6]: 80.3% | EC50 (0 mM GlcN): 1.08 nM | EC50 (0.25 mM GlcN): 0.727 nM | EC50 (2.5 mM GlcN): 0.154 nM
